Test results taken from US11559484B2, “Film formulations containing dexmedetomidine and methods of producing them” (BioXcel Therapeutics, Inc., priority 2018, dated 2023).
Where a name gives a salt, the structure may show the parent alone.

Assays:
[1] = IV infusion from 0.2 mcg/kg/hr, schizophrenia patients
[2] = sublingual dose of 100 micrograms, human subjects; cited from earlier work
[3] = human, in vivo, iv

Time to reach Cmax [3]: 15 to 105 min
Compound: Cc1cccc([C@H](C)c2cnc[nH]2)c1C [dexmedetomidine hydrochloride, (+) 4-(S)-[1-(2,3-dimethylphenyl)ethyl]-1H-imidazole]
patients in the treatment arm achieving a RASS score of at least −1 [1]: 9 out of 10
hypotension post-administration [2]: Hypotension was observed
patients in the treatment arm with agitation reduced to a minimum (PEC score of 7 or below) (IV infusion, schizophrenia patients): 9 out of 10
subjects with >=50% reduction in PEC score (IV route, schizophrenia): 7 of 10
